Among the data in ChEMBL document CHEMBL1145230, “Syntheses of 2,4,6-trisubstituted pyrimidine derivatives as a new class of antifilarial topoisomerase II inhibitors” (Bioorg Med Chem Lett, 2005) are inhibition values, retold here.

A word on the inhibition: it is the percentage by which the read-out fell short of the control.

The source made the active and inactive calls. No cut-off for these calls is given here.

One assay relates to Setaria cervi. As to the kind of experiment: Percent inhibition of filarial parasite Setaria cervi by compound at 20 ug/mL concentration. The assay is classed as functional.
In turn, `Nc1nc(NCCO)cc(-c2cccs2)n1` had an inhibition of 60%.

Regarding `CCN(CC)C(=O)N1CCN(C)CC1`, the inhibition came out at 10%.

Regarding `CN1CCN(c2cc(-c3cccs3)nc(-c3ccc(N)cc3)n2)CC1`, the inhibition turned out to be 80%.

In turn, `Nc1nc(NCCN2CCOCC2)cc(-c2cccs2)n1` came in with an inhibition of 80%.

`CO[C@@H]1[C@@H](OC(N)=O)[C@@H](O)[C@H](Oc2ccc3c(O)c(NC(=O)c4ccc(O)c(CC=C(C)C)c4)c(=O)oc3c2C)OC1(C)C` showed an inhibition of 20%.

Compound `CCCNc1cc(-c2cccs2)nc(N)n1` gave an inhibition of 60%.

Turning to `Nc1nc(NCCCN2CCOCC2)cc(-c2cccs2)n1`, the inhibition came out at 80%.

Compound `Nc1ccc(-c2nc(NCCCN3CCOCC3)cc(-c3cccs3)n2)cc1` displayed an inhibition of 70%.

`CCn1cc(C(=O)O)c(=O)c2ccc(C)nc21`: the inhibition was 40%.

As to `CN1CCN(c2cc(-c3cccs3)nc(N)n2)CC1`, the inhibition came to 80%.

A further assay has as its system Setaria cervi. Kind of assay: Percent inhibition of filarial parasite Setaria cervi by compound at 40 ug/mL concentration. The assay is classed as functional.
Regarding `Nc1nc(NCCO)cc(-c2cccs2)n1`, the inhibition worked out at 60%.

`CCN(CC)C(=O)N1CCN(C)CC1` had an inhibition of 45%.

The compound `CN1CCN(c2cc(-c3cccs3)nc(-c3ccc(N)cc3)n2)CC1` showed an inhibition of 80%.

Compound `Nc1nc(NCCN2CCOCC2)cc(-c2cccs2)n1` had an inhibition of 80%.

The compound `CO[C@@H]1[C@@H](OC(N)=O)[C@@H](O)[C@H](Oc2ccc3c(O)c(NC(=O)c4ccc(O)c(CC=C(C)C)c4)c(=O)oc3c2C)OC1(C)C` showed an inhibition of 80%.

Take `CCCNc1cc(-c2cccs2)nc(N)n1`: the inhibition worked out at 60%.

Compound `Nc1nc(NCCCN2CCOCC2)cc(-c2cccs2)n1` registered an inhibition of 80%.

`Nc1ccc(-c2nc(NCCCN3CCOCC3)cc(-c3cccs3)n2)cc1` returned an inhibition of 70%.

Compound `CCn1cc(C(=O)O)c(=O)c2ccc(C)nc21` showed an inhibition of 80%.

As for `CN1CCN(c2cc(-c3cccs3)nc(N)n2)CC1`, the inhibition is 80%.

For another assay, the system named is Setaria cervi. As to the kind of experiment: Percent inhibition of filarial parasite Setaria cervi by compound at 5 ug/mL concentration; NI = no inhibition. It is filed as functional.
On to `Nc1nc(NCCO)cc(-c2cccs2)n1`, for which the inhibition result is “inactive”.

In the case of `CCN(CC)C(=O)N1CCN(C)CC1`, the inhibition entry is “inactive”.

For `Nc1nc(NCCN2CCOCC2)cc(-c2cccs2)n1`, the inhibition entry was “inactive”.

On to `CO[C@@H]1[C@@H](OC(N)=O)[C@@H](O)[C@H](Oc2ccc3c(O)c(NC(=O)c4ccc(O)c(CC=C(C)C)c4)c(=O)oc3c2C)OC1(C)C`, for which the inhibition entry is “inactive”.

`CCCNc1cc(-c2cccs2)nc(N)n1`: the inhibition result was “inactive”.

As to `CCn1cc(C(=O)O)c(=O)c2ccc(C)nc21`, the inhibition entry is “inactive”.

Another assay deals with Setaria cervi. As to the kind of experiment: Percent inhibition of filarial parasite Setaria cervi by compound at 5 ug/mL concentration. It is filed as functional.
Turning to `CN1CCN(c2cc(-c3cccs3)nc(-c3ccc(N)cc3)n2)CC1`, the inhibition worked out at 25%.

In the case of `Nc1nc(NCCCN2CCOCC2)cc(-c2cccs2)n1`, the inhibition came to 60%.

In the case of `Nc1ccc(-c2nc(NCCCN3CCOCC3)cc(-c3cccs3)n2)cc1`, the inhibition stood at 40%.

For the compound `CN1CCN(c2cc(-c3cccs3)nc(N)n2)CC1`, the inhibition amounted to 60%.

A further assay relates to Setaria cervi. Kind of assay: Percent inhibition of filarial parasite Setaria cervi by compound at 10 ug/mL concentration. The assay is classed as functional.
The compound `CN1CCN(c2cc(-c3cccs3)nc(-c3ccc(N)cc3)n2)CC1` gave an inhibition of 80%.

For the compound `Nc1nc(NCCN2CCOCC2)cc(-c2cccs2)n1`, the inhibition stood at 80%.

For the compound `CO[C@@H]1[C@@H](OC(N)=O)[C@@H](O)[C@H](Oc2ccc3c(O)c(NC(=O)c4ccc(O)c(CC=C(C)C)c4)c(=O)oc3c2C)OC1(C)C`, the inhibition was 10%.

Compound `Nc1nc(NCCCN2CCOCC2)cc(-c2cccs2)n1` returned an inhibition of 80%.

With `Nc1ccc(-c2nc(NCCCN3CCOCC3)cc(-c3cccs3)n2)cc1`, the inhibition was 70%.

`CCn1cc(C(=O)O)c(=O)c2ccc(C)nc21` gave an inhibition of 20%.

`CN1CCN(c2cc(-c3cccs3)nc(N)n2)CC1` registered an inhibition of 80%.

The subject of a further assay is Setaria cervi. Kind of assay: Percent inhibition of filarial parasite Setaria cervi by compound at 10 ug/mL concentration; NI = no inhibition. It is filed as functional.
As for `Nc1nc(NCCO)cc(-c2cccs2)n1`, the inhibition entry is “inactive”.

Turning to `CCN(CC)C(=O)N1CCN(C)CC1`, the inhibition entry is “inactive”.

As for `CCCNc1cc(-c2cccs2)nc(N)n1`, the inhibition result was “inactive”.
